Measurements from patent US6321750A, “Condom lubricants with zinc salts as anti-viral additives” (priority 1999, dated 2001).
“Also recorded” adds a separate entry of the source.

Experiments:
[1] = system: H-9 lymphocytes; assay: Toxicity to lymphocytes; type: cell-based
Procedure: (§1) In a first set of tests, 20 mg of zinc acetate powder (ZnAc, MW 183.4) was mixed in 1 ml RPMI cell culture medium (Whittaker Corp.). This 2% (w/v) salt mixture contained 7 mg/ml elemental Zn. […] Therefore, a small quantity of HCl was added until the mixture became clear; the pH was about 5.5. The Zn concentration was reduced by half (and the pH was raised somewhat) when an equal volume (1 ml) of cell-free high-titer HIV-1 viral stock was added. The zinc/virus mixture was stirred and incubated for 2 hours at 37° C. (i.e., normal body temperature).
(§2) Following this first incubation step, the zinc/virus mixtures were diluted at 1:10, 1:30, and 1:100 ratios using culture medium, and aliquots were added to equal volumes of culture media containing H-9 lymphocytes that had been pretreated overnight with 2 μg/ml Polybreen. The lymphocyte mixtures were incubated for three hours at 37° C.; zinc concentrations during this step were 180, 60, and 18 μg/ml for the 1:10, 1:30, and 1:100 dilutions.
A 2 ml aliquot from each dilution was mixed with an equal volume of 3% ZnAc dissolved in sterile distilled water; after mixing, the zinc concentration was 5.3 mg/ml Zn. These mixtures were incubated for 2 hours, then diluted with culture medium at 1:30, 1:100, and 1:1000 to reduce the toxicity of the zinc to lymphocytes. Four ml of lymphocytes were mixed with 4 ml of each zinc/virus mixture. The zinc/virus/cell mixtures were incubated at 37° C. for 3 hours; zinc concentrations were 88, 27, and 2.7 μg/ml in the 30, 100, and 1000 dilutions.

[2] = water; cited from earlier work
[3] = system: male genitals; assay: Irritation test on male genitals / urethra; details: gel in K-Y Lubricating Jelly, about 5% w/v; passive and active rubbing
Procedure: In all examples, the test subjects were a monogamous married couple, free of genital herpes and all other known sexually transmitted viruses.
The mixture of zinc acetate in K-Y Lubricating Jelly was tested on the male genitals, passively at first and then with active rubbing.
About 0.5 grams were dissolved in several drops of distilled water and tested on the forearm and genitals.

[4] = cited from earlier work
[5] = system: HIV-1; assay: High-titer HIV infectivity test (two-step incubation, p24 ELISA); type: cell-based; details: for HIV infectivity: high-titer stock
Procedure: The initial set of HIV tests were carried out at Biotech Research Laboratories (Rockville, Md.). The HIV-1 viral isolate and H-9 cell line were originally supplied by Robert Gallo of the NCI.
as §1, §2
The cell aliquots were then washed twice, using culture medium, to remove free p24 proteins that are present in the initial viral stock. Such proteins will skew ELISA readings if not removed by washing. Cells were then resuspended in fresh medium containing 10% fetal calf serum (FCS) and cultured for 20 days. During this period, each tube was periodically sampled by hand-mixing the tube, withdrawing 100 μl of liquid from the top, and testing the sample for p24 antigens using ELISA assays.
A positive control was used at each dilution. Viral aliquots not treated with zinc were identically diluted, mixed with lymphocytes, cultured, and tested. Negative controls were also run, in which H-9 cells were plated and grown in the absence of any virus or zinc; these provided background levels that vary slightly from day to day, depending on factors such as spectrophotometer calibrations and rinsing conditions.

[6] = system: forearm; assay: Irritation test on forearm / skin; type: in vivo, human
Procedure: Zinc acetate was purchased from Pfaltz and Bauer (Waterbury, Connecticut). About 0.5 grams were mixed with several drops of distilled water at room temperature. […] The aqueous mixture was rubbed into an area about 3 cm in diameter on the forearm of […] and caused no irritation. Subsequently, about 0.5 grams of the salt were dissolved in a few drops of distilled water, then 10 ml K-Y Lubricating Jelly (sold by Johnson and Johnson, New Brunswick, N.J.) was added to form a gel mixture containing about 5% zinc acetate (w/v). This commercially available mixture contains purified water, hydroxyethyl-cellulose as a thickening agent, glycerin as a lubricant, glucono-delta-lactate to prevent crystallization, chlorhexidine gluconate as a preservative, and sodium hydroxide to reduce the acidity.

[7] = system: HIV; assay: HIV precipitation test; details: 2% ZnAc with equal volume of undiluted viral stock
Procedure: Precipitation tests using HIV were also carried out Biotech Research Laboratories, using 2% ZnAc which was mixed with an equal volume of undiluted viral stock, incubated for 24 hours, and centrifuged at 1500 rpm in a tabletop centrifuge for 5 minutes. The supernatant was sampled ([…]) and serially diluted by medium, at 1:10 followed by 2× dilutions (1:20, 1:40, 1:80, etc) to a maximum dilution of 1:10240. Each dilution was analyzed spectrophotometrically to determine the concentration of viruses suspended in solution. After sampling, each tube was hand-mixed and incubated for 24 hours. The solution near the top of the tube was sampled again, serially diluted, and tested using the ELISA assay. The tube was hand-mixed again, incubated for three more days, and sampled again to obtain Day 5 values.

[8] = system: several cell lines; assay: Zinc toxicity in several cell lines; details: read-out: concentration at which toxicity began to appear in mild form, all comparable
[9] = system: vagina; assay: Irritation test in shallow region of the vagina (volunteer); type: in vivo, human
[10] = system: genitals (both persons, during intercourse); assay: Irritation test of lubricant during intercourse / human volunteers; type: in vivo
Source text: Subsequently, the gel formulation was applied topically and used as a sexual lubricant during intercourse. Both people wiped off the excess with a tissue after intercourse, but neither person showered or washed off the lubricant until the following day. It caused no irritation to either person.

In the case of Zinc acetate, the cell mortality ([1]; 88 μg/ml Zn, 3 h) is reported as “significant cell mortality”, the lymphocyte mortality ([1]; 1:10 dilution, 180 μg/ml Zn, 3 h) is reported as “substantial mortality to the lymphocytes” and the lymphocyte growth ([1]; 1:30 dilution, 60 μg/ml Zn, visual observation) is reported as “retarded cell growth during the first few days”. The cell mortality ([1]; lower levels (27 and 2.7 μg/ml Zn), 3 h) was “no cell mortality”, the Molar solubility [2] was 1.64 and the Solubility [2] was 300. The “irritation, male genitals” value [3] was “no irritation”, the ionization rate ([4]; in aqueous solution) was ≤ 30% and the “Reported pK values” ([4]; in water, values below 2 refer to release of a single carboxy anion) was 1.03. For the same substance, the p24 concentrations ([5]; 1% zinc acetate 2 h, diluted 1:30 (60 μg/ml Zn), 20 days culture) was “indistinguishable from background levels”, the HIV infectivity ([5]; 1% zinc acetate 2 h, diluted 1:30 (60 μg/ml Zn)) was “completely eliminated” and the HIV infectivity ([5]; 1% zinc acetate 2 h, diluted 1:30 (60 μg/ml Zn), listed as ZnAc) was “completely abolished viral infectivity”. The HIV infectivity ([5]; 1% zinc acetate 2 h, diluted 1:100 (18 μg/ml Zn)) was “reduced and delayed”, the HIV infectivity ([5]; 1% zinc acetate 2 h, diluted 1:100 (18 μg/ml Zn), listed as ZnAc) was “suppressed and retarded HIV infectivity” and the “inhibition of HIV particles (summary of Examples 8-10)” value ([5]; two-step incubation assay, FIGS. 1-4) was “inhibited or entirely inactivated the HIV particles”. For the same substance, the “irritation, forearm” value ([6]; about 0.5 g in several drops of distilled water) was “no irritation”, the “burning and irritation to the skin” value ([6]; dissolved in water alone) was “substantial amount of burning and irritation to the skin” and the “virus precipitation” value [7] was “substantial precipitation of the virus”. For the same substance, the MCC [8] was ~100 mM, the “irritation, vagina” value ([9]; dissolved in (distilled) water alone) was “unpleasant tingling or mild burning sensation; also recorded: vaginal irritation” and the “irritation, vagina / female genitals” value ([9]; gel in K-Y Lubricating Jelly, about 5% w/v, passive test) was “no tingling, burning, or other unpleasant sensation”. The irritation during intercourse ([10]; gel in K-Y Lubricating Jelly, about 5% w/v) was “no irritation; also recorded: Neither of these salts caused any irritation” and the “irritation of gel / genital lubricant formulations” value ([10]; in gel or genital lubricant, human volunteers) was “did not cause any irritation”.
